In patent US11306078B2, “Piperidine CXCR7 receptor modulators” (IDORSIA PHARMACEUTICALS LTD., priority 2016, dated 2022):

target: human chemokine receptor CXCR7 (Homo sapiens (Human), UniProt P25106); experiment: Tango CXCR7-bla U2OS beta-arrestin recruitment assay (beta-lactamase reporter, FRET), antagonism of CXCL12/SDF1-α; type: cell-based; settings: antagonistic effect on CXCR7; Tango CXCR7-bla U2OS cells, CXCL12/SDF1-α at its EC80;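 note: compounds preincubated 15 min before CXCL12 addition, then 22 h at 37 °C, FRET emission ratio read with CCF4-AM substrate after 2 h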
Sequence (P25106 whole entry): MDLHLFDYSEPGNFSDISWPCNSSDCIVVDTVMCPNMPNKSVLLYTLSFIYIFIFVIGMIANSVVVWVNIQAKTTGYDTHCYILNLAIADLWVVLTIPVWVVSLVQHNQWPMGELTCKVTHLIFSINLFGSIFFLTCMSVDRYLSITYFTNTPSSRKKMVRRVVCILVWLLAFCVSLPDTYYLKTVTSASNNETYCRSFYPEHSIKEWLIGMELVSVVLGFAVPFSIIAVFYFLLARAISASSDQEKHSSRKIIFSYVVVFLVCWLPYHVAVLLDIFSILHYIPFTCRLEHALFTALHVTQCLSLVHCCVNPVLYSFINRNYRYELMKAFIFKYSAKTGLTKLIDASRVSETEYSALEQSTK

Structure (SMILES) | IC50 [nM]
Cc1ccccc1CCNC(=O)[C@@H]1CN(C2CCCCC2)CC[C@H]1NC(=O)c1cc(-c2ccc(F)cc2F)on1 (racemic) [Example 1.056, rac-(3R*,4R*)-1-Cyclohexyl-4-{[5-(2,4-difluoro-phenyl)-isoxazole-3-carbonyl]-amino}-piperidine-3-carboxylic acid (2-o-tolyl-ethyl)-amide] | 4
COc1ccccc1CCNC(=O)[C@@H]1CN(C2CCCCC2)CC[C@H]1NC(=O)c1cc(-c2ccc(F)cc2F)on1 (racemic) [Example 1.057, rac-(3R*,4R*)-1-Cyclohexyl-4-{[5-(2,4-difluoro-phenyl)-isoxazole-3-carbonyl]-amino}-piperidine-3-carboxylic acid [2-(2-methoxy-phenyl)-ethyl]-amide] | 1
O=C(N[C@@H]1CCN(C2CCCCC2)C[C@H]1C(=O)NCCc1ccccc1Cl)c1cc(-c2ccc(F)cc2F)on1 (racemic) [Example 1.058, rac-(3R*,4R*)-1-Cyclohexyl-4-{[5-(2,4-difluoro-phenyl)-isoxazole-3-carbonyl]-amino}-piperidine-3-carboxylic acid [2-(2-chloro-phenyl)-ethyl]-amide] | 1
O=C(N[C@@H]1CCN(C2CCCCC2)C[C@H]1C(=O)NCCc1ccc(F)cc1)c1cc(-c2ccc(F)cc2F)on1 (racemic) [Example 1.059, rac-(3R*,4R*)-1-Cyclohexyl-4-{[5-(2,4-difluoro-phenyl)-isoxazole-3-carbonyl]-amino}-piperidine-3-carboxylic acid [2-(4-fluoro-phenyl)-ethyl]-amide] | 140
Cc1ccc(CCNC(=O)[C@@H]2CN(C3CCCCC3)CC[C@H]2NC(=O)c2cc(-c3ccc(F)cc3F)on2)cc1 (racemic) [Example 1.062, rac-(3R*,4R*)-1-Cyclohexyl-4-{[5-(2,4-difluoro-phenyl)-isoxazole-3-carbonyl]-amino}-piperidine-3-carboxylic acid (2-p-tolyl-ethyl)-amide] | 16
Cc1nc(NC(=O)[C@@H]2CN(C3CCCCC3)CC[C@H]2NC(=O)c2cc(-c3ccc(F)cc3F)on2)sc1C (racemic) [Example 1.065, rac-(3R*,4R*)-1-Cyclohexyl-4-{[5-(2,4-difluoro-phenyl)-isoxazole-3-carbonyl]-amino}-piperidine-3-carboxylic acid (4,5-dimethyl-thiazol-2-yl)-amide] | 567
Cc1cccc(CCNC(=O)[C@@H]2CN(C3CCCCC3)CC[C@H]2NC(=O)c2cc(-c3ccc(F)cc3F)on2)c1 (racemic) [Example 1.066, rac-(3R*,4R*)-1-Cyclohexyl-4-{[5-(2,4-difluoro-phenyl)-isoxazole-3-carbonyl]-amino}-piperidine-3-carboxylic acid (2-m-tolyl-ethyl)-amide] | 16

The next lines start with the values.

IC50 [nM] | Structure (SMILES)
319 | O=C(N[C@@H]1CCN(C2CCCCC2)C[C@H]1C(=O)Nc1cccnc1)c1cc(-c2ccc(F)cc2F)on1 (racemic) [Example 1.067, rac-(3R*,4R*)-1-Cyclohexyl-4-{[5-(2,4-difluoro-phenyl)-isoxazole-3-carbonyl]-amino}-piperidine-3-carboxylic acid pyridin-3-ylamide]
512 | Cc1csc(CNC(=O)[C@@H]2CN(C3CCCCC3)CC[C@H]2NC(=O)c2cc(-c3ccc(F)cc3F)on2)n1 (racemic) [Example 1.068, rac-(3R*,4R*)-1-Cyclohexyl-4-{[5-(2,4-difluoro-phenyl)-isoxazole-3-carbonyl]-amino}-piperidine-3-carboxylic acid (4-methyl-thiazol-2-ylmethyl)-amide]
44 | CN(CCc1ccccn1)C(=O)[C@@H]1CN(C2CCCCC2)CC[C@H]1NC(=O)c1cc(-c2ccc(F)cc2F)on1 (racemic) [Example 1.075, rac-(3R*,4R*)-1-Cyclohexyl-4-{[5-(2,4-difluoro-phenyl)-isoxazole-3-carbonyl]-amino}-piperidine-3-carboxylic acid methyl-(2-pyridin-2-yl-ethyl)-amide]
